In patent US9174992B2, “Heterobicyclic compounds” (Amgen Inc., priority 2012, dated 2015) one finds IC50 data, which are given here for 34 molecules.

Usually IC50 stands for the midpoint of a concentration-inhibition curve.

In this test the target is PDE10A (UniProt Q9Y233). The test is described as follows: PDE10 enzyme inhibition, IMAP TR-FRET assay (Example A, MPDE10A7 Enzyme Activity and Inhibition). It is filed as biochemical. To be noted: approximate IC50 value, Table 10. On the procedure: Enzyme Activity. An IMAP TR-FRET assay was used to analyze the enzyme activity (Molecular Devices Corp., Sunnyvale Calif.). 10 μL of serial diluted PDE10A (BPS Bioscience, San Diego, Calif.) or tissue homogenate was incubated with equal volumes of diluted fluorescein labeled cAMP or cGMP for 90 min in 384-well Polypropylene assay plates (Greiner, Monroe, N.C.) at room temperature. After incubation, the reaction was stopped by adding 55 μL of diluted binding reagents and was incubated for 4 hours to overnight at room temperature. The plates were read on an Envision (Perkin Elmer, Waltham, Mass.) for time resolved fluorescence resonance energy transfer. The data were analyzed with Genedata Screener® (Lexington, Mass.).
Enzyme Inhibition. To check the inhibition profile, 0.2 μL of serial diluted compounds were incubated with 10 μL of diluted PDE10 enzyme (BPS Bioscience, San Diego, Calif.) or tissue homogenate in a 384-well Polypropylene assay plate (Greiner, Monroe, N.C.) for 60 min at room temperature. After incubation, 10 μL of diluted fluorescein labeled cAMP or cGMP substrate were added and incubated for 90 min at room temperature. The reaction was stopped by adding 55 μL of diluted binding reagents and plates were read on an Envision (Perkin Elmer, Waltham, Mass.) for time resolved fluorescence resonance energy transfer. The data were analyzed with Genedata Screener® (Lexington, Mass.).
IC50 curves were generated from the raw data collected from the […] and fitted with a four-parameter logistic equation using in-house data analysis tool, Activity Base.

Turning to `CC1(C)C(=O)N([C@H]2C[C@H](Nc3nc(-c4ccccc4)cs3)C2)c2ncccc21` [Example 69, 3,3-Dimethyl-1-(trans-3-((4-phenylthiazol-2-yl)amino)cyclobutyl)-1H-pyrrolo[2,3-b]pyridine-2(3H)-one], the IC50 was found to be 167 nM.
The same measure for `CC1(C)C(=O)N([C@H]2C[C@H](Nc3ncc(C(F)(F)F)cn3)C2)c2ncccc21` [Example 70, 1-(trans-3-((5-(trifluoromethyl)pyrimidin-2-yl)amino)cyclobutyl)-3,3-dimethyl-1H-pyrrolo[2,3-b]pyridin-2(3H)-one]: 180 nM; for `CC1(C)C(=O)N([C@H]2C[C@H](Nc3ncc(F)cn3)C2)c2ncccc21` [Example 71, 1-(trans-3-((5-fluoropyrimidin-2-yl)amino)cyclobutyl)-3,3-dimethyl-1H-pyrrolo[2,3-b]pyridin-2(3H)-one]: 244 nM; for `CC1(C)C(=O)N([C@H]2C[C@H](Nc3ccnc(Cl)n3)C2)c2ncccc21` [Example 72, 1-(trans-3-((2-cholropyrimidin-4-yl)amino)cyclobutyl)-3,3-dimethyl-1H-pyrrolo[2,3-b]pyridin-2(3H)-one]: 352 nM.
For `Cc1ccc(N[C@H]2CC[C@H](N3C(=O)C(C)(C)c4nccnc43)CC2)nc1` [Example 73, 7,7-dimethyl-5-(trans-4-((5-methylpyridin-2-yl)amino)cyclohexyl)-5H-pyrrolo[2,3-b]pyrazin-6(7H)-one], inhibition was half-maximal at 1.54 nM (IC50).
`COc1ccc(N[C@H]2C[C@H](N3C(=O)C(C)(C)c4nccnc43)C2)nc1` [Example 74] returned an IC50 of 2.88 nM.
In turn, `Cc1ccc(N[C@H]2CC[C@H](N3C(=O)C(C)(C)c4nccnc43)CC2)nc1` [Example 75, 7,7-Dimethyl-5-(trans-4-((5-methylpyridin-2-yl)amino)cyclohexyl)-5H-pyrrolo[2,3-b]pyrazin-6(7H)-one] displayed an IC50 of 5.02 nM.
As to `CC1(C)C(=O)N([C@H]2C[C@H](Nc3ccc(F)cn3)C2)c2nccnc21` [Example 76, 5-(trans-3-((5-fluoropyridin-2-yl)amino)cyclobutyl)-7,7-dimethyl-5H-pyrrolo[2,3-b]pyrazin-6(7H)-one], it took 51.1 nM to reach half-maximal inhibition (IC50).
`Cc1ccc(N[C@H]2CC[C@H](N3C(=O)C(C)(C)c4cccnc43)CC2)nc1` [Example 77, 3,3-Dimethyl-1-(trans-4-((5-methylpyridin-2-yl)amino)cyclohexyl)-1H-pyrrolo[2,3-b]pyridin-2(3H)-one]: it took 1.29 nM to reach half-maximal inhibition (IC50).
Molecule `CC1(C)C(=O)N([C@H]2C[C@H](Nc3ccc(C4CC4)cn3)C2)c2nccnc21` [Example 78, 5-(trans-3-((5-cyclopropylpyridin-2-yl)amino)cyclobutyl)-7,7-dimethyl-5H-pyrrolo[2,3-b]pyrazin-6(7H)-one] had an IC50 of 4.2 nM.
The figure for `CC1(C)C(=O)N([C@H]2C[C@H](Nc3ncc(C4CC4)cn3)C2)c2ncccc21` [Example 79, 1-(trans-3-((5-cyclopropylpyrimidin-2-yl)amino)cyclobutyl)-3,3-dimethyl-1H-pyrrolo[2,3-b]pyridin-2(3H)-one] is 6.15 nM.
`C=C(C)c1cnc(NC2CC(N3C(=O)C(C)(C)c4cccnc43)C2)nc1` (stereo not shown) [Example 80, 3,3-dimethyl-1-(−3-((5-(prop-1-en-2-yl)pyrimidin-2-yl)amino)cyclobutyl)-1H-pyrrolo[2,3-b]pyridin-2(3H)-one] yielded an IC50 of 1.43 nM.
Regarding `CC1(C)C(=O)N([C@H]2C[C@@H](Nc3nc4ccccc4s3)C2)c2ncccc21` [Example 81, 1-(Cis-3-(benzo[d]thiazol-2-ylamino)cyclobutyl)-3,3-dimethyl-1H-pyrrolo[2,3-b]pyridin-2(3H)-one], the IC50 was 1.26 nM.
As for `CC(C)c1cnc(N[C@H]2C[C@H](N3C(=O)C(C)(C)c4cccnc43)C2)nc1` [Example 82, 1-(trans-3-((5-isopropylpyrimidin-2-yl)amino)cyclobutyl)-3,3-dimethyl-1H-pyrrolo[2,3-b]pyridin-2(3H)-one], the IC50 came out at 2.83 nM.
Turning to `COc1cnc(N[C@H]2C[C@H](N3C(=O)C(C)(C)c4cccnc43)C2)nc1` [Example 83, 1-(trans-3-((5-methoxypyrimidin-2-yl)amino)cyclobutyl)-3,3-dimethyl-1H-pyrrolo[2,3-b]pyridin-2(3H)-one], the IC50 amounted to 7.72 nM.
Take `CC(=O)c1ccc(N[C@H]2C[C@H](N3C(=O)C(C)(C)c4nccnc43)C2)nc1` [Example 84, 5-(trans-3-((5-acetylpyridin-2-yl)amino)cyclobutyl)-7,7-dimethyl-5H-pyrrolo[2,3-b]pyrazin-6(7H)-one]: the IC50 came out at 23.1 nM.
The figure for `O=c1n(C2CC2)c2cccnc2n1[C@H]1C[C@H](Nc2nc3ccccc3s2)C1` [Example 85, 3-(trans-3-(benzo[d]thiazol-2-ylamino)cyclobutyl)-1-cyclopropyl-1H-imidazo[4,5-b]pyridin-2(3H)-one] is 0.0254 nM; for `Cn1c(=O)n([C@H]2C[C@H](Nc3nc4ccccc4s3)C2)c2ncc(F)cc21` [Example 86, 3-(trans-3-(benzo[d]thiazol-2-ylamino)cyclobutyl)-6-fluoro-1-methyl-1H-imidazo[4,5-b]pyridin-2(3H)-one] it is 0.0655 nM.
The molecule `O=c1n(C2CC2)c2cc(F)cnc2n1[C@H]1C[C@H](Nc2nc3ccccc3s2)C1` [Example 87, 3-(trans-3-(benzo[d]thiazol-2-ylamino)cyclobutyl)-6-fluoro-1-cyclopropyl-1H-imidazo[4,5-b]pyridin-2(3H)-one] returned an IC50 of 0.0794 nM.
In turn, `Cn1c(=O)n([C@H]2C[C@H](Nc3nc4ccccc4s3)C2)c2ncccc21` [Example 88, 3-(trans-3-(benzo[d]thiazol-2-ylamino)cyclobutyl)-1-methyl-1H-imidazo[4,5-b]pyridin-2(3H)-one] had an IC50 of 0.0911 nM.
For the molecule `O=c1n(C2CCCC2)c2cccnc2n1[C@H]1C[C@H](Nc2nc3ccccc3s2)C1` [Example 89, 3-(trans-3-(benzo[d]thiazol-2-ylamino)cyclobutyl)-1-cyclopentyl-1H-imidazo[4,5-b]pyridin-2(3H)-one], the IC50 was 0.131 nM.
The molecule `O=c1n(C2CC2)c2nccnc2n1[C@H]1C[C@H](Nc2nc3ccccc3s2)C1` [Example 90, 1-(trans-3-(benzo[d]thiazol-2-ylamino)cyclobutyl)-3-cyclopropyl-1H-imidazo[4,5-b]pyrazin-2(3H)-one] registered an IC50 of 0.388 nM.
The same measure for `O=c1n(C2CC2)c2cncnc2n1[C@H]1C[C@H](Nc2nc3ccccc3s2)C1` [Example 91, 9-(trans-3-(benzo[d]thiazol-2-ylamino)cyclobutyl)-7-cyclopropyl-7H-purin-8(9H)-one]: 0.469 nM.
As for `O=c1[nH]c2cccnc2n1[C@H]1C[C@H](Nc2nc3ccc(F)cc3s2)C1` [Example 92, 3-(trans-3-((6-fluorobenzo[d]thiazol-2-yl)amino)cyclobutyl)-1H-imidazo[4,5-b]pyridin-2(3H)-one], the half-maximal inhibitory concentration (IC50) stood at 0.664 nM.
For the molecule `Cn1c(=O)n([C@H]2C[C@H](Nc3nc4ccccc4s3)C2)c2ncncc21` [Example 93, 9-(trans-3-(benzo[d]thiazol-2-ylamino)cyclobutyl)-7-methyl-7H-purin-8(9H)-one], the IC50 came out at 0.878 nM.
As to `O=c1[nH]c2cccnc2n1[C@H]1C[C@H](Nc2nc3ccccc3s2)C1` [Example 94, 3-(trans-3-(benzo[d]thiazol-2-ylamino)cyclobutyl)-1H-imidazo[4,5-b]pyridin-2(3H)-one], inhibition was half-maximal at 0.91 nM (IC50).
The molecule `Cn1c(=O)n([C@H]2C[C@H](Nc3nc4ccccc4s3)C2)c2nccnc21` [Example 95, 1-(trans-3-(benzo[d]thiazol-2-ylamino)cyclobutyl)-3-methyl-1H-imidazo[4,5-b]pyrazin-2(3H)-one] gave an IC50 of 0.971 nM.
`O=c1[nH]c2cccnc2n1[C@H]1C[C@H](Nc2ccc3ccccc3n2)C1` [Example 96, 3-(trans-3-(quinolin-2-ylamino)cyclobutyl)-1H-imidazo[4,5-b]pyridin-2(3H)-one] yielded an IC50 of 1.09 nM.
As for `O=c1[nH]c2cncnc2n1[C@H]1C[C@H](Nc2nc3ccccc3s2)C1` [Example 97, 9-(trans-3-(benzo[d]thiazol-2-ylamino)cyclobutyl)-7H-purin-8(9H)-one], the IC50 amounted to 3.03 nM.
On to `O=c1[nH]c2cccnc2n1[C@H]1C[C@H](Nc2nc3c(F)cccc3s2)C1` [Example 98], for which the IC50 stood at 4.82 nM.
`O=c1[nH]c2cccnc2n1[C@H]1C[C@H](Nc2nc3cc(F)ccc3s2)C1` [Example 99, 3-(trans-3-((5-fluorobenzo[d]thiazol-2-yl)amino)cyclobutyl)-1H-imidazo[4,5-b]pyridin-2(3H)-one] showed an IC50 of 7.7 nM.
The molecule `O=c1oc2cccnc2n1[C@H]1C[C@H](Nc2nc3ccccc3s2)C1` [Example 100] returned an IC50 of 10.3 nM.
For `O=c1[nH]c2cccnc2n1[C@H]1C[C@H](Nc2ccc3ccc(F)cc3n2)C1` [Example 101, 3-(trans-3-((7-fluoroquinolin-2-yl)amino)cyclobutyl)-1H-imidazo[4,5-b]pyridin-2(3H)-one], the midpoint of inhibition, the IC50, lay at 17.9 nM.
On to `O=c1[nH]c2cccnc2n1[C@H]1C[C@H](Nc2ncc3ccccc3n2)C1` [Example 102, 3-(trans-3-(quinazolin-2-ylamino)cyclobutyl)-1H-imidazo[4,5-b]pyridin-2(3H)-one], for which the IC50 was 25.6 nM.
